Test results taken from ChEMBL document CHEMBL4825690, “Synthesis and biological evaluation of chalcone-polyamine conjugates as novel vectorized agents in colorectal and prostate cancer chemotherapy” (Eur J Med Chem, 2021).
Active and inactive are the calls of the source. The calls are words filed in the database; no cut-off is given here.

What was measured:
[1] = test system: DU-145; assay: Induction of apoptosis in human DU-145 cells assessed as increase in caspase-3 level by Western blot assay; format: functional, cell-based
[2] = test system: HCT-116; assay: Induction of cell cycle arrest in human HCT-116 cells assessed as accumulation at G2 phase at IC50 incubated for 48 hrs by RNaeA/propidium iodide based flow cytometry analysis (reference value: 17.76 %); format: functional
[3] = test system: DU-145; assay: Antiproliferative activity against human DU145 cells assessed as reduction in cell viability incubated for 48 hr by MTT assay; format: functional, cell-based; conditions: DU-145, 48 h
[4] = test system: HCT-116; assay: Induction of apoptosis in human HCT-116 cells assessed as increase in cleaved PARP protein expression by Western blot assay; format: functional, cell-based
[5] = test system: DU-145; assay: Induction of cell cycle arrest in human DU-145 cells assessed as effect on Cdc2 expression by Western blot analysis; format: functional, cell-based
[6] = test system: HT-29; assay: Induction of apoptosis in human HT-29 cells assessed as decrease in pro-caspase-3 expression by Western blot assay; format: functional, cell-based
[7] = test system: DU-145; assay: Induction of cell cycle arrest in human DU-145 cells assessed as accumulation at S phase at IC50 incubated for 48 hrs by RNaeA/propidium iodide based flow cytometry analysis (reference value: 38.44 %); format: functional
[8] = test system: HT-29; assay: Induction of cell cycle arrest at G1 phase in human HT-29 cells assessed as reduction in CDK6 expression by Western blot analysis; format: functional, cell-based
[9] = test system: HCT-116; assay: Induction of cell cycle arrest in human HCT-116 cells assessed as reduction in CDK6 expression by Western blot analysis; format: functional, cell-based
[10] = test system: HT-29; assay: Induction of cell cycle arrest at G1 phase in human HT-29 cells assessed as reduction in Cyclin D1 expression by Western blot analysis; format: functional, cell-based
[11] = test system: HT-29; assay: Induction of cell cycle arrest at G1 phase in human HT-29 cells assessed as reduction in CDK2 expression by Western blot analysis; format: functional, cell-based
[12] = test system: PC-3; assay: Induction of cell cycle arrest in human PC-3 cells assessed as decrease in cyclin B1 expression by Western blot analysis; format: functional, cell-based
[13] = test system: PC-3; assay: Induction of apoptosis in human PC-3 cells assessed as increase in DNA fragmentation after 48 hrs by ELISA relative to control; format: functional
[14] = test system: HCT-116; assay: Induction of apoptosis in human HCT-116 cells assessed as increase in caspase-3 level by Western blot assay; format: functional, cell-based
[15] = test system: HCT-116; assay: Antiproliferative activity against human HCT116 cells assessed as reduction in cell viability incubated for 48 hr by MTT assay; format: functional, cell-based; conditions: HCT-116, 48 h
[16] = test system: HCT-116; assay: Induction of cell cycle arrest in human HCT-116 cells assessed as accumulation at sub-G1 phase at IC50 incubated for 48 hrs by RNaeA/propidium iodide based flow cytometry analysis (reference value: 0.67 %); format: functional
[17] = test system: PC-3; assay: Induction of apoptosis in human PC-3 cells assessed as early apoptotic cells incubated for 48 hrs by annexin-V/FITC and propidium iodide staining based flow cytometry analysis (reference value: 4.38 %); format: functional
[18] = test system: PC-3; assay: Induction of cell cycle arrest in human PC-3 cells assessed as increase in p21 expression by Western blot analysis; format: functional, cell-based
[19] = test system: PC-3; assay: Induction of cell cycle arrest in human PC3 cells assessed as accumulation at S phase at IC50 incubated for 48 hrs by RNaeA/propidium iodide based flow cytometry analysis (reference value: 33.66 %); format: functional
[20] = test system: HCT-116; assay: Induction of cell cycle arrest in human HCT-116 cells assessed as increase in Cyclin E2 expression by Western blot analysis; format: functional, cell-based
[21] = test system: HT-29; assay: Induction of apoptosis in human HT-29 cells assessed as viable cells incubated for 48 hrs by annexin-V/FITC and propidium iodide staining based flow cytometry analysis (reference value: 83.56 %); format: functional
[22] = test system: HT-29; assay: Induction of apoptosis in human HT-29 cells assessed as necrotic cells incubated for 48 hrs by annexin-V/FITC and propidium iodide staining based flow cytometry analysis (reference value: 3.52%); format: functional
[23] = test system: HT-29; assay: Induction of cell cycle arrest in human HT-29 cells assessed as accumulation at sub-G1 phase at IC50 incubated for 48 hrs by RNaeA/propidium iodide based flow cytometry analysis (reference value: 0.12 %); format: functional
[24] = test system: HCT-116; assay: Induction of cell cycle arrest in human HCT-116 cells assessed as accumulation at S phase at IC50 incubated for 48 hrs by RNaeA/propidium iodide based flow cytometry analysis (reference value: 30.68 %); format: functional
[25] = test system: HCT-116; assay: Induction of apoptosis in human HCT-116 cells assessed as decrease in PARP protein expression by Western blot assay; format: functional, cell-based
[26] = test system: HT-29; assay: Induction of cell cycle arrest in human HT-29 cells assessed as increase in p21 expression by Western blot analysis; format: functional, cell-based
[27] = test system: PC-3; assay: Induction of cell cycle arrest in human PC3 cells assessed as accumulation at sub-G1 phase at IC50 incubated for 48 hrs by RNaeA/propidium iodide based flow cytometry analysis (reference value: 0 %); format: functional
[28] = test system: HCT-116; assay: Induction of apoptosis in human HCT-116 cells assessed as necrotic cells incubated for 48 hrs by annexin-V/FITC and propidium iodide staining based flow cytometry analysis (reference value: 7.22 %); format: functional
[29] = test system: HCT-116; assay: Induction of cell cycle arrest in human HCT-116 cells assessed as increase in p21 expression by Western blot analysis; format: functional, cell-based
[30] = test system: HT-29; assay: Antiproliferative activity against human HT29 cells assessed as reduction in cell viability incubated for 48 hr by MTT assay; format: functional, cell-based; conditions: HT-29, 48 h
[31] = test system: PC-3; assay: Induction of cell cycle arrest in human PC3 cells assessed as accumulation at G1 phase at IC50 incubated for 48 hrs by RNaeA/propidium iodide based flow cytometry analysis (reference value: 42.61 %); format: functional
[32] = test system: PC-3; assay: Antiproliferative activity against human PC3 cells assessed as reduction in cell viability incubated for 48 hr by MTT assay; format: functional, cell-based; conditions: PC-3, 48 h
[33] = test system: HCT-116; assay: Induction of cell cycle arrest in human HCT-116 cells assessed as accumulation at G1 phase at IC50 incubated for 48 hrs by RNaeA/propidium iodide based flow cytometry analysis (reference value: 51.56 %); format: functional
[34] = test system: DU-145; assay: Induction of cell cycle arrest in human DU-145 cells assessed as increase in p21 expression by Western blot analysis; format: functional, cell-based
[35] = test system: HT-29; assay: Induction of apoptosis in human HT-29 cells assessed as early apoptotic cells incubated for 48 hrs by annexin-V/FITC and propidium iodide staining based flow cytometry analysis (reference value: 3.37%); format: functional

`COc1cc(C(=O)/C=C/c2ccc(OCCCNCCCNCCCCN)cc2)cc(OC)c1OC` was tested, and the Activity [1] was “Active”, the Activity [2] was 19.93% and the IC50 [3] was 8.86 µM. For the same compound, the Activity [4] was “Active”, the Activity [5] was “inactive” and the Activity [6] was “Active”. For the same compound, the Activity [7] was 37.34%, the Activity [8] was “Active” and the Activity [9] was “Active”. For the same compound, the Activity [10] was “Active”, the Activity [11] was “Active” and the Activity [12] was “Active”. The “fold change (FC)” value [13] was 6.53, the Activity [14] was “Active” and the IC50 [15] was 8.13 µM. For the same compound, the Activity [16] was 24.17%, the Activity [17] was 34.25% and the Activity [18] was “Active”. For the same compound, the Activity [19] was 22.17%, the Activity [20] was “Active” and the Activity [21] was 56.67%. For the same compound, the Activity [22] was 0.6%, the Activity [23] was 7.07% and the Activity [24] was 14.4%. The Activity [25] was “Active”, the Activity [26] was “Active” and the Activity [27] was 26.99%. For the same compound, the Activity [28] was 3.35%, the Activity [29] was “Active” and the IC50 [30] was 10.8 µM. The Activity [31] was 19.12%, the IC50 [32] was 13.7 µM and the Activity [33] was 65.67%. For the same compound, the Activity [34] was “Active” and the Activity [35] was 11.04%.
